This note sets out measurements from patent US20220119446A1, “BIOMARKERS AND TREATMENT OF NEURONAL INJURY AND NEURODEGENERATION” (Board of Supervisons of Louisiana State University and …, priority 2018, published 2022).

“Also recorded” adds a separate entry of the source. * marks the point of attachment. Boc = CC(C)(C)OC(=O)*

The subject of experiment [1] is Wnt5a. In words: Transient MCAo: Wnt5a protein in plasma. The experiment is classed as in vivo. Conditions: rat MCAo, days 1, 3 and 7 post-surgery. The protocol:
In various exemplary embodiments, docosahexaenoic acid (DHA; 5 mg/kg, Cayman, Ann Arbor, Mich., USA), Box5 (1 mg/kg, Millipore-Sigma, Burlington, Mass.) or vehicle (0.9% saline) is administered intravenously into the femoral vein at a constant rate over 3 min using an infusion pump at 3 h after onset of MCAo. In embodiments, for western-blot study, rats are sacrificed on days 1, 3, or 7; for real-time PCR study, rats are sacrificed on days 1, 2, or 3.
A, Timeline of MCAo. DHA, Box5 or saline were administered at 1 h after 2 h of MCAo and rats were sacrificed on days 1, 2, 3 or 7. B, Effect of DHA on neurological recovery. Total score (normal score=0, maximal deficit=12), tactile placing (dorsal, lateral, proprioceptive reactions; normal score=0, maximal deficit=2) after MCAo. DHA or saline was administered at 1 h after 2 h of MCAo and rats sampled on days 1, 2, 3 or 7. […] C, Total neurological score at days 1, 3 and 7; D, MRI quantification at day 7 of the lesion volume depicting total, core and penumbra and; E, representative coronal sections showing T2 weighted image (T2WI), the defined core and penumbra region (red and blue, respectively) in the second column; and a 3D reconstruction of the lesion. […] J, Quantification of Wnt5a and NF-κB linked gene expression in MCAo. […] The mRNA were measured using SYBR green RT-PCR. […]

For another experiment, the system named is FZD5. In words: SYBR green real-time PCR of Wnt5a receptors/co-receptors in RPE cells under UOS. The experiment is classed as cell-based, human. A general note: Real-time PCR tracks product formation cycle by cycle.
Experiment [2] concerns Wnt5a. Description: Western blot of secreted (sWnt5a) and cellular (cWnt5a) Wnt5a in RPE cells under UOS. In kind it is cell-based, human. The protocol:
To monitor transcription, translation, and secretion of Wnt5a, we performed western blot assays using cellular lysates and medium from hpRPE undergoing UOS+/−NPD1 at different time points. Medium was precipitated using Methanol/Chloroform to bring down all secreted Wnt5a.
The pellet can be re-suspended and denatured in 100 μl of 2× Laemmli sample buffer (Bio-Rad Laboratories, Hercules, Calif.) at 95° C. for 5 min. MCAo brain tissue and cell samples can be homogenized using RIPA (Thermo Fisher Scientific, Waltham, Mass.) buffer supplemented with protease and phosphatase inhibitor cocktails (Millipore Sigma, Burlington, Mass.). In embodiments, the amount of 30 μg of total protein is loaded in NuPAGE® Novex® 4-12% Bis-Tris precast gels (Life Technologies Corporation, Carlsbad, Calif.) and run at constant 120V for about 1 hour and 20 min. Proteins can be transferred to μm Nitrocellulose membrane using Bio-Rad Trans-Blot® Turbo™ System (Bio-Rad Laboratories, Hercules, Calif.). ECL™ Plex Fluorescent Rainbow Markers (GE Healthcare, Chicago, Ill.) can be used as the ladder for protein's molecular weight. Membranes can be blocked using 5% non-fat dry milk (Bio-Rad Laboratories, Hercules, Calif.) in TBS with 1% Tween® 20 (TBST-10×) (Croda International, Snaith, United Kingdom) for 1 hour and incubated overnight with primary antibodies. Anti-mouse or anti-rabbit secondary antibodies conjugated with Cy3 or Cy5 can be used to visualize the protein of interest. Immunoblots can be documented using LAS 4000 imaging system (GE Healthcare Life Sciences, Marlborough, Mass.). A time course exposition can be produced in each case to prevent quantification of saturated images. In embodiments, densitometry data are obtained using ImageQuant™ TL software (GE Healthcare Life Sciences, Marlborough, Mass.).
The pellet was re-suspended and denatured in 100 μl of 2× Laemmli sample buffer (Bio-Rad Laboratories) at 95° C. for 5 min. MCAo brain tissue and cell samples were homogenized using RIPA (Thermo Fisher Scientific) buffer supplemented with protease and phosphatase inhibitor cocktails (Sigma). The amount of 30 μg of total protein was loaded in NuPAGE® Novex® 4-12% Bis-Tris precast gels (Life Technologies Corporation) or Mini-PROTEAN TGX Stain free gels 4-15% and ran at constant 120V for 1 hour and 20 min or 250 V for 40 min respectively. Proteins were transferred to μm Nitrocellulose or LF-PVDF membrane using Bio-Rad Trans-Blot® Turbo™ System (Bio-Rad Laboratories). ECL™ Plex Fluorescent Rainbow Markers (GE Healthcare) were used as the ladder for protein's molecular weight. […] A time course exposition was produced in each case to prevent quantification of saturated images. […]

Experimental for FZD5: Cell samples, total RNA was extracted by RNeasy Mini Kit (QIAGEN) following manufacturer's protocol. The purity and concentration of RNA were determined by NanoDrop ND-1000 Spectrophotometer (Thermo Fisher Scientific). cDNA first strand was obtained from one microgram of total RNA using iScript™ Reverse Transcription Supermix (Bio-Rad Laboratories, CA, USA). The resulting cDNA was used as template SYBR-green or Eva-green based real-time PCR quantification using SsoAdvance Universal Supermix (Bio-Rad Laboratories). Data was collected and analyzed using CFX Manager 3.0 software, the ΔΔCt method. Melting curve was produced for every run to assure a unique amplified product per primer set.

Take “t-Boc-NH-Met-Asp-Gly-Cys-Glu-Leu-CO2H (Boc-MDGCEL-OH) [Box5]”: the “plasma (blood) Wnt5a protein” value in the experiment on Wnt5a [1] is reported as “failed to reduce the plasma Wnt5a content; also recorded: did not affect the levels of Wnt5a; also recorded: did not affect Wnt5a abundance”.

On to `CC/C=C\C[C@H](O)\C=C/C=C/C=C/[C@H](O)C/C=C\C/C=C\CCC(=O)O` [NPD1, 10R,17S-dihydroxy-docosa-4Z,7Z,11E,13E,15Z,19Z-hexaenoic acid], for which the FZD5 expression result in the experiment with FZD5 (ARPE-19 cells, UOS gives 3-fold increase (FIG. 1F)) was “counteracted this effect”. Also, in the experiment with FZD5 (hpRPE exposed to UOS, UOS gives 2-fold rise), the “FZD5 mRNA” value was “downregulated”. The ROR1 expression result with FZD5 (reduced under UOS) is recorded as “re-established”. In addition, the “secreted Wnt5a (sWnt5a) in medium” value is on record as “disappeared; also recorded: decreases band intensity close to control levels” in the experiment with Wnt5a [2] (ARPE-19 cells, 600 μM H2O2 and 10 ng/ml TNFα, 6 hours, 100 nM NPD1); “decreased Wnt5a in the medium; also recorded: decreased media sWnt5a; also recorded: decreases soluble Wnt5a” in the experiment with Wnt5a [2] (hpRPE cells under UOS, Pitstop2 added 2 hours before harvesting).
